Target: T1, human PAD4 (Homo sapiens, UniProt Q9UM07)
T1 construct: human PAD4 (NM_012387), A2P663, was PCR amplified; His-SUMO (N, cleaved yes); made in house; host or cells: E. coli BL21(DE3)
Test: In vitro PAD4 BAEE biochemical assay
Details: human PAD4, BAEE substrate; 5 nM PAD4, 2 mM calcium chloride, 3 mM BAEE; geometric mean of multiple experiments
Protocol: The PCR product was ligated into linearized pET-SUMO vector (Invitrogen, Carlsbad, CA), which is part of the Champion™ pET SUMO Protein Expression System. After sequence verification for the correct orientation, the pET-SUMO-hPAD4 expression plasmid was transformed into BL21(DE3) cells.
E. Coli BL21(DE3) cells were inoculated in LB medium with kanamycin at 37° C. until A600 nm reached about 0.5. Protein expression was induced by addition of 0.5 mM IPTG (final) and continued overnight at 16° C. at 220 rpm.
Cells were harvested by centrifugation at 5000 rpm for 10 minutes at 4° C. The pellet was resuspended in 300 ml lysis buffer (20 mM Tris-HCl, pH 8.0, 1 mM EDTA, 500 mM NaCl, 1 mM (tris(2-carboxyethyl)phosphine) (TCEP), 10% glycerol, and 1% Triton X100 and EDTA free protease inhibitor) and lysed by 3× passage through a microfluidizer (Microfluidics, Newton, MA) at 18,000 psi. The cell lysate was clarified by centrifugation at 30,000 rpm for 60 minutes at 4° C. […] Bound protein was eluted with a 0-100% linear gradient of 100 mL Ni-B buffer (Ni A buffer+0.5 M Imidazole).
The protein was then reloaded onto a Ni—HP column for a reverse purification step and recovered in flow through fraction. The protein with His-Sumo tag removed was then polished using a 16/60 Superdex-200 gel filtration column with gel filtration buffer (20 mM Tris pH 8.0, NaCl 400 mM and 1 mM TCEP). The fractions containing the protein were pulled and frozen at −80° C.
The enzymatic activity of human PAD4 was monitored in a biochemical assay in the presence or absence of compounds using the small peptidyl arginine mimic BAEE (Na-Benzoyl-L-arginine ethyl ester hydrochloride) as substrate. PAD4 activity led to deamination of BAEE and release of ammonia. Levels of ammonia were monitored by using an amine coupling reaction and were indicative of PAD4 enzymatic activity.
One hundred nanoliters of test compounds dissolved in DMSO at various concentrations were dispensed into a 384-well black OptiPlate using a Labcyte Echo instrument. Ten microliters of a solution of recombinant PAD4 and calcium chloride diluted in PAD4 assay buffer (50 mM MOPS [3-(N-morpholino) propanesulfonic acid], pH 7.6; 50 mM sodium chloride; 0.05% Tween-20; 2 mM dithiothreitol) was added to the compound-containing plate and was incubated for 30 minutes at 25° C. Ten microliters of a solution of BAEE (Sigma-Aldrich #B4500) diluted in PAD4 assay buffer was then added to start the reaction. Final concentrations were 5 nM PAD4, 2 mM calcium chloride, and 3 mM BAEE. The reaction mixture was incubated at 25° C. for 2 hours and was stopped with the addition of 10 microliters of a solution of 75 mM EDTA (Ethylenediaminetetraacetic acid) in PAD4 assay buffer. Thirty microliters of detection solution (5 mM o-phthalaldehyde, 50 mM MOPS [3-(N-morpholino) propanesulfonic acid], pH 7.6; 50 mM sodium chloride; 0.05% Tween-20; 5 mM dithiothreitol) was then added and the reaction was incubated for 1 hour at 25° C.

T1 sequence (Q9UM07 2-663): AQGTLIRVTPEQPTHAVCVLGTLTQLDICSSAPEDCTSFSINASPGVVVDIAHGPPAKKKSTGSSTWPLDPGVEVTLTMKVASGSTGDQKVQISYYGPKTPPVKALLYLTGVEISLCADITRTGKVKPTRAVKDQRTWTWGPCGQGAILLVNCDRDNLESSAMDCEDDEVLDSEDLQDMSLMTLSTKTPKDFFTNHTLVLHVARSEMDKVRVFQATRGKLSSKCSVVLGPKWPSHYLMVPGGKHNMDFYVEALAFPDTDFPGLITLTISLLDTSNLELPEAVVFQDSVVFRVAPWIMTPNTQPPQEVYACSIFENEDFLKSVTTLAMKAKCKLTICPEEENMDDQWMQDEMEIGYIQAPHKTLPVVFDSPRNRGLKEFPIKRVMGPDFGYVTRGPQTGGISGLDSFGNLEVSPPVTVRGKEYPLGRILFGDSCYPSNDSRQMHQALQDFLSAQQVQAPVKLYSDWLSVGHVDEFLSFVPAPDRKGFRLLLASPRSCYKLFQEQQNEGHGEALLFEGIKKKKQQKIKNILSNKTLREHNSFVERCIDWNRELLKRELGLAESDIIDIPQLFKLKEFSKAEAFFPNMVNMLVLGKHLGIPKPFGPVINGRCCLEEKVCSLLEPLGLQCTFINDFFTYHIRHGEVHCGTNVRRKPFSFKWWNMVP

IC50 | SMILES
306 nM | COc1cc(C(=O)N[C@@H]2CCCCNC2)cc2nc(-c3cc4ccc(N(C(F)F)S(C)(=O)=O)nc4n3CC3CC3)c(C)n12 [Example 316, ~{N}-[(3~{R})-azepan-3-yl]-2-[1-(cyclopropylmethyl)-6-[difluoromethyl (methylsulfonyl)amino]pyrrolo[2,3-b]pyridin-2-yl]-5-methoxy-3-methylimidazo[1,2-a]pyridine-7-carboxamide]
60.6 nM | COc1cc(C(=O)N2CC[C@H]3CCN[C@H]3C2)cc2nc(-c3cc4ccc(N(C(F)F)S(C)(=O)=O)nc4n3CC3CC3)c(C)n12 [Example 420, ~{N}-[2-[7-[(3~{a}~{R},7~{a}~{R})-1,2,3,3~{a},4,5,7,7~{a}-octahydropyrrolo[2,3-c]pyridine-6-carbonyl]-5-methoxy-3-methylimidazo [1,2-a]pyridin-2-yl]-1-(cyclopropylmethyl)pyrrolo [2,3-b]pyridin-6-yl]-~{N}-(difluoromethyl) methanesulfonamide]
8050 nM | COc1cc(C(=O)N[C@@H]2CC[C@@H]3CC[C@H]2N3)cc2nc(-c3cc4ccc(N(C(F)F)S(C)(=O)=O)nc4n3CC3CC3)c(C)n12 [Example 299, ~{N}-[(1~{R},2~{R}, 5~{S})-8-azabicyclo [3.2.1]octan-2-yl]-2-[1-(cyclopropylmethyl)-6-[difluoromethyl (methylsulfonyl)amino]pyrrolo[2,3-b]pyridin-2-yl]-5-methoxy-3-methylimidazo[1,2-a]pyridine-7-carboxamide]
31200 nM | COc1cc(C(=O)N[C@@H]2C[C@@H]3CC[C@H]2N3)cc2nc(-c3cc4ccc(N(C(F)F)S(C)(=O)=O)nc4n3CC3CC3)c(C)n12 [Example 312, N-[(1R,2R,4S)-7-azabicyclo[2.2.1]heptan-2-yl]-2-[1-(cyclopropylmethyl)-6-[difluoromethyl (methylsulfonyl)amino]pyrrolo[2,3-b]pyridin-2-yl]-5-methoxy-3-methyl-imidazo[1,2-a] pyridine-7-carboxamide]
487 nM | COc1cc(C(=O)N2CC[C@H]3CCCN[C@H]3C2)cc2nc(-c3cc4ccc([C@@H](C)NC(=O)C56CC(F)(C5)C6)nc4n3CC3CC3)c(C)n12 [Example 31, ~{N}-[(1~{R})-1-[2-[7-[(4~{a}~{R}, 8~{a}~{R})-2,3,4,4~{a},5,6,8,8~{a}-octahydro-1~{H}-1,7-naphthyridine-7-carbonyl]-5-methoxy-3-methylimidazo [1,2-a]pyridin-2-yl]-1-(cyclopropylmethyl)pyrrolo[2,3-b]pyridin-6-yl]ethyl]-3-fluorobicyclo[1.1.1] pentane-1-carboxamide]
194 nM | COc1cc(C(=O)N2CC[C@H]3CCN[C@H]3C2)cc2nc(-c3cc4ccc([C@@H](C)NC(=O)c5ccccc5)nc4n3CC3CC3)c(C)n12 [Example 59, ~{N}-[(1~{R})-1-[2-[7-[(3~{a}~{R}, 7~{a}~{R})-1,2,3,3~{a},4,5,7,7~{a}-octahydropyrrolo[2,3-c]pyridine-6-carbonyl]-5-methoxy-3-methylimidazo[1,2-a]pyridin-2-yl]-1-(cyclopropylmethyl)pyrrolo[2,3-b]pyridin-6-yl]ethyl]benzamide]

Second part, the molecule before the results:

SMILES | IC50
CCc1ccc2cc(-c3nc4cc(C(=O)N5[C@H]6CC[C@@H]5[C@H](N)C6)cc(OC)n4c3C)n(CC(C)(F)F)c2n1 [Example 500, [(1~{R},2~{R},4~{S})-2-amino-7-azabicyclo [2.2.1]heptan-7-yl]-[2-[1-(2,2-difluoropropyl)-6-ethylpyrrolo[2,3-b]pyridin-2-yl]-5-methoxy-3-methylimidazo [1,2-a]pyridin-7-yl] methanone] | 160 nM
CC(C)c1c(-c2cc3ccc(N(C(F)F)S(C)(=O)=O)nc3n2CC2CC2)nc2cc(C(=O)N3CCC[C@@H](N)C3)ccn12 [Example 433, ~{N}-[2-[7-[(3~{R})-3-aminopiperidine-1-carbonyl]-3-propan-2-ylimidazo[1,2-a]pyridin-2-yl]-1-(cyclopropylmethyl)pyrrolo [2,3-b]pyridin-6-yl]-~{N}-(difluoromethyl) methanesulfonamide] | 7040 nM
COc1cc(C(=O)N2[C@H]3CC[C@@H]2[C@H](N)C3)cc2nc(-c3cc4ccc(-c5ccccc5C(F)(F)F)nc4n3CC3CC3)c(C)n12 [Example 549, [(1~{R},2~{R},4~{S})-2-amino-7-azabicyclo [2.2.1]heptan-7-yl]-[2-[1-(cyclopropylmethyl)-6-[2-(trifluoromethyl)phenyl]pyrrolo[2,3-b]pyridin-2-yl]-5-methoxy-3-methylimidazo[1,2-a]pyridin-7-yl]methanone] | 3670 nM
COc1cc(C(=O)N2[C@H]3CC[C@@H]2[C@H](N)C3)cc2nc(-c3cc4ccc([C@@H](C)NC(=O)C(C)(C)CO)nc4n3CC3CC3)c(C)n12 [Example 134] | 66.5 nM
COc1cc(C(=O)N2[C@H]3CC[C@@H]2[C@H](N)[C@H](O)C3)cc2nc(-c3cc4ccc([C@@H](C)NC(=O)C(C)(C)C)nc4n3CC3CC3)c(C)n12 [Example 60, ~{N}-[(1~{R})-1-[2-[7-[(1~{R},2~{S},3~{R}, 5~{S})-2-amino-3-hydroxy-8-azabicyclo[3.2.1]octane-8-carbonyl]-5-methoxy-3-methylimidazo [1,2-a]pyridin-2-yl]-1-(cyclopropylmethyl)pyrrolo[2,3-b]pyridin-6-yl]ethyl]-2,2-dimethylpropanamide] | 226 nM
COc1cc(C(=O)N2[C@H]3CC[C@@H]2[C@H](N)C3)cc2nc(-c3cc4ccc([C@@H](C)NC(=O)c5cn(C)nn5)nc4n3CC3CC3)c(C)n12 [Example 1, ~{N}-[(1~{R})-1-[2-[7-[(1~{R},2~{R},4~{S})-2-amino-7-azabicyclo[2.2.1]heptane-7-carbonyl]-5-methoxy-3-methylimidazo [1,2-a]pyridin-2-yl]-1-(cyclopropylmethyl)pyrrolo [2,3-b]pyridin-6-yl]ethyl]-1-methyltriazole-4-carboxamide] | 85.7 nM
COc1cc(C(=O)N2[C@H]3CC[C@@H]2[C@H](N)C3)cc2nc(-c3cc4ccc(C5CCCCN5C(=O)C(C)(C)C)nc4n3CC3CC3)c(C)n12 (stereo partly drawn) [Example 514, 1-(2-(2-(7-((1R,2R,4S)-2-amino-7-azabicyclo[2.2.1]heptane-7-carbonyl)-5-methoxy-3-methylimidazo[1,2-a]pyridin-2-yl)-1-(cyclopropylmethyl)-1H-pyrrolo[2,3-b]pyridin-6-yl)piperidin-1-yl)-2,2-dimethylpropan-1-one] | 741 nM
COc1cc(C(=O)N2[C@H]3CC[C@@H]2[C@H](N)C3)cc2nc(-c3cc4ccc([C@@H](C)NC(=O)C(C)C)nc4n3CC3CC3)c(C)n12 [Example 89, ~{N}-[(1~{R})-1-[2-[7-[(1~{R},2~{R},4~{S})-2-amino-7-azabicyclo[2.2.1]heptane-7-carbonyl]-5-methoxy-3-methylimidazo [1,2-a]pyridin-2-yl]-1-(cyclopropylmethyl)pyrrolo [2,3-b]pyridin-6-yl]ethyl]-2-methylpropanamide] | 40.1 nM
COc1cc(C(=O)N2[C@@H]3CC[C@@H](N)[C@H]2CC3)cc2nc(-c3cc4ccc(N(C(F)F)S(C)(=O)=O)nc4n3CC(F)(F)F)c(C)n12 [Example 495, ~{N}-[2-[7-[(1~{R},2~{R}, 5~{R})-2-amino-8-azabicyclo[3.2.1]octane-8-carbonyl]-5-methoxy-3-methylimidazo[1,2-a]pyridin-2-yl]-1-(2,2,2-trifluoroethyl)pyrrolo [2,3-b]pyridin-6-yl]-~{N}-(difluoromethyl) methanesulfonamide] | 202 nM

— patent publication US12240862B2, “Inhibitors of peptidylarginine deiminases” (Gilead Sciences, Inc., priority 2020, dated 2025)
